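Cultured in 96-well plates, cells were exposed to test compound for 48 hours across five concentrations. GI50: concentration for 50% inhibition of growth.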 Calls of active or inactive are those of the source. Rule as the data show it: active = GI50 up to about 1.1 µM and inactive = higher.
How the values were obtained:
Assay in all cases: growth of human tumour cells (NCI), 48 h
[1] = system: CCRF-CEM
[2] = system: HCT-116
[3] = system: HCT-15
[4] = system: HL-60
[5] = system: HOP-62
[6] = system: IGROV-1
[7] = system: MDA-N
[8] = system: Malme-3M
[9] = system: NCI-H226
[10] = system: OVCAR-3
[11] = system: OVCAR-4
[12] = system: OVCAR-8
[13] = system: RXF 393
[14] = system: SF-268
[15] = system: SF-295
[16] = system: SF-539
[17] = system: SK-MEL-2
[18] = system: T47D
[19] = system: TK-10

SMILES	GI50 [1]	GI50 [2]	GI50 [3]	GI50 [4]	GI50 [5]	GI50 [6]	GI50 [7]	GI50 [8]	GI50 [9]	GI50 [10]	GI50 [11]	GI50 [12]	GI50 [13]	GI50 [14]	GI50 [15]	GI50 [16]	GI50 [17]	GI50 [18]	GI50 [19]
CO/C(N)=C(C#N)/N=C/c1ccsc1	24 µM (inactive)	40 µM (inactive)	34.3 µM	13.1 µM (inactive)	> 100 µM (inactive)	52.6 µM (inactive)	28.5 µM (inactive)	40.6 µM (inactive)	> 100 µM (inactive)	30.6 µM (inactive)	> 100 µM (inactive)	59 µM (inactive)	31.8 µM (inactive)	44.7 µM (inactive)	> 100 µM (inactive)	26.2 µM (inactive)	37.3 µM (inactive)	68.4 µM (inactive)	> 100 µM (inactive)
CC1(C)CCCC2CC2CCC(C)(C)C1=O (stereo not drawn)	15.7 µM (inactive)	78.2 µM (inactive)	71.9 µM	18.1 µM (inactive)	> 100 µM (inactive)	> 100 µM (inactive)	29.5 µM (inactive)	58.3 µM (inactive)	43.8 µM (inactive)	25.5 µM (inactive)	> 100 µM (inactive)	82.8 µM (inactive)	27.4 µM (inactive)	> 100 µM (inactive)	> 100 µM (inactive)	> 100 µM (inactive)	31.8 µM (inactive)	> 100 µM (inactive)	> 100 µM (inactive)
Clc1cc2ncn(C3CCCO3)c2cc1Cl (stereo not drawn)	> 100 µM (inactive)	78.5 µM (inactive)	> 100 µM	78.9 µM (inactive)	> 100 µM (inactive)	17.3 µM (inactive)	> 100 µM (inactive)	> 100 µM (inactive)	54.1 µM (inactive)	49.8 µM (inactive)	> 100 µM (inactive)	77.8 µM (inactive)	81.3 µM (inactive)	99.3 µM (inactive)	> 100 µM (inactive)	> 100 µM (inactive)	> 100 µM (inactive)	66.2 µM (inactive)	96.2 µM (inactive)
CC(Oc1ccc(Cl)cc1Cl)C(=O)NN1C(=O)CSC1c1ccccc1 (stereo not drawn)	66.7 µM (inactive)	45.7 µM (inactive)	> 100 µM	27.3 µM (inactive)	47.5 µM (inactive)	54 µM (inactive)	> 100 µM (inactive)	40.9 µM (inactive)	24.2 µM (inactive)	96.4 µM (inactive)	32.1 µM (inactive)	51.1 µM (inactive)	54.7 µM (inactive)	60.5 µM (inactive)	60 µM (inactive)	> 100 µM (inactive)	45.4 µM (inactive)	56.8 µM (inactive)	> 100 µM (inactive)
NC(=O)Nc1n[nH]c(-c2ccccc2)n1	> 100 µM (inactive)	> 100 µM (inactive)	> 100 µM	> 100 µM (inactive)	54.1 µM (inactive)	> 100 µM (inactive)	> 100 µM (inactive)	> 100 µM (inactive)	> 100 µM (inactive)	> 100 µM (inactive)	> 100 µM (inactive)	> 100 µM (inactive)	> 100 µM (inactive)	> 100 µM (inactive)	0.706 µM (active)	> 100 µM (inactive)	> 100 µM (inactive)	> 100 µM (inactive)	> 100 µM (inactive)
CC1(C)N=C(N)N=C(N)N1c1cccc(C(=O)Nc2ccc(S(=O)(=O)F)cc2)c1	> 100 µM (inactive)	> 100 µM (inactive)	> 100 µM	> 100 µM (inactive)	> 100 µM (inactive)	> 100 µM (inactive)	> 100 µM (inactive)	> 100 µM (inactive)	> 100 µM (inactive)	> 100 µM (inactive)	> 100 µM (inactive)	> 100 µM (inactive)	> 100 µM (inactive)	> 100 µM (inactive)	> 100 µM (inactive)	> 100 µM (inactive)	> 100 µM (inactive)	> 100 µM (inactive)	> 100 µM (inactive)
C#CC(O)/C=C/CCCCCCC#CC/C=C\CC#CCCCCCCCCC(O)C#C (stereo not drawn)	0.0836 µM (active)	2.28 µM (inactive)	3.27 µM	1.74 µM (inactive)	4.27 µM (inactive)	0.407 µM (active)	1.99 µM (inactive)	1.95 µM (inactive)	15.6 µM (inactive)	10.1 µM (inactive)	4.19 µM (inactive)	1.91 µM (inactive)	14.6 µM (inactive)	9.59 µM (inactive)	15.1 µM (inactive)	20.8 µM (inactive)	2.59 µM (inactive)	10.5 µM (inactive)	13.1 µM (inactive)
